By IC50 is commonly meant the midpoint of a concentration-inhibition curve.

Structures are written as SMILES.

The subject of experiment [1] is panel of DUBs (24 USPs and 19 other DUBs). Put plainly: Selectivity profile against a panel of DUBs (Ub-Rh110 substrate, Ubiquigent). The class given is biochemical. As to conditions: fixed concentration of 100 μM. The protocol: FIG. 1 Overall selectivity profile of Example 124 against a panel of DUBs. Included in this screen were 24 USPs and 19 other DUBs (as indicated). Example 124 was screened at a fixed concentration of 100 μM using the Ub-Rh110 substrate (Ubiquigent). Residual activity is shown on the y-axis normalised to the no compound (DMSO) control.

The target in the next experiment is USP19 (Homo sapiens (Human), UniProt O94966). Description: USP19 activity assay (fluorescence polarisation, Ubiquitin-Lys-TAMRA substrate). The class given is biochemical. As to conditions: full-length USP19 2.5 nM, 30 min pre-incubation, Ub substrate 500 nM; average of at least two duplicate experiments. (Polarisation of emitted light reports the rotation of a fluorescent probe.)
Sequence of USP19 (O94966 whole entry): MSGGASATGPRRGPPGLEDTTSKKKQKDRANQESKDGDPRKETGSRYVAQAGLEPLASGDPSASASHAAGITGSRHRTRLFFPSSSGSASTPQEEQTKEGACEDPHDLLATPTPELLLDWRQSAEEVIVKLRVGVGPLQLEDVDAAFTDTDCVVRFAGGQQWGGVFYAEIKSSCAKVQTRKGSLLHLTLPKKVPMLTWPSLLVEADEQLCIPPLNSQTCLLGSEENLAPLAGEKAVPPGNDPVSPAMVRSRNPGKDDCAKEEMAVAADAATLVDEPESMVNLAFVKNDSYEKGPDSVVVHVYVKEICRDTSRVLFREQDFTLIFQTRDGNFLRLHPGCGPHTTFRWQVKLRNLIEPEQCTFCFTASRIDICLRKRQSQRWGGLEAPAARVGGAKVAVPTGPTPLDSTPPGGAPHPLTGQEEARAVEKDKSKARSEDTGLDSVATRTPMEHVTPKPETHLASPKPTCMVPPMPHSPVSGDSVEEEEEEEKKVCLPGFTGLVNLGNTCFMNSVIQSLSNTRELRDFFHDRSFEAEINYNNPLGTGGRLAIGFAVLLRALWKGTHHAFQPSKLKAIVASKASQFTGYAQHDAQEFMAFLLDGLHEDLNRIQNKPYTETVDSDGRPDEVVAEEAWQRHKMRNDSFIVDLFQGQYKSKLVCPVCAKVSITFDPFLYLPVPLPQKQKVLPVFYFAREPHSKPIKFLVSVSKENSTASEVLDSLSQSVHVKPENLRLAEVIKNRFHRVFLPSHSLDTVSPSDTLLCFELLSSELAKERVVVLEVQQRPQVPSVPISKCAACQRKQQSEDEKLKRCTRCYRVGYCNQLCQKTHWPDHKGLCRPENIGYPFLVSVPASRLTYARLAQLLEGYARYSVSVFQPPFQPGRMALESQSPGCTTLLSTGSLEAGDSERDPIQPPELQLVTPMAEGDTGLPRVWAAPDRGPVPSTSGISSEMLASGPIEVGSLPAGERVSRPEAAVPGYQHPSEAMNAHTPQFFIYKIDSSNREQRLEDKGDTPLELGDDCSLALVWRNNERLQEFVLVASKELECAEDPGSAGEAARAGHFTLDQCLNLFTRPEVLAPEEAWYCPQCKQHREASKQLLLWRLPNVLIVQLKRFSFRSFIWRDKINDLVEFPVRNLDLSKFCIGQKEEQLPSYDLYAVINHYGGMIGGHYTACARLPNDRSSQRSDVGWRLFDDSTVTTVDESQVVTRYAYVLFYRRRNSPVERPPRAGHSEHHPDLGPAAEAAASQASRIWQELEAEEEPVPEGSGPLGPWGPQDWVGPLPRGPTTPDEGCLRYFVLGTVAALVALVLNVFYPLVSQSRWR

Regarding `C[C@H](CC1CCCCC1)C(=O)N1CC[C@@](O)(Cn2cc(C(=O)N3CCNCC3)c(-c3ccccc3)cc2=O)C(C)(C)C1` [Example 124, 1-(((S)-1-((R)-3-Cyclohexyl-2-methylpropanoyl)-4-hydroxy-3,3-dimethylpiperidin-4-yl)methyl)-4-phenyl-5-(piperazine-1-carbonyl)pyridin-2(1H)-one], in experiment [1], the “Overall selectivity profile (residual activity normalised to DMSO control)” value is “selectivity is demonstrated”. At USP19, the IC50 was less than 0.5 µM.

Consider `CN(C)C(=O)c1cn(CC2(O)CCN(C(=O)COC3CCCCC3)CC23CCCC3)c(=O)cc1-c1ccccc1` (stereo not drawn) [Example 194, 1-((7-(2-(Cyclohexyloxy)acetyl)-10-hydroxy-7-azaspiro[4.5]decan-10-yl)methyl)-N,N-dimethyl-6-oxo-4-phenyl-1,6-dihydropyridine-3-carboxamide], for which, on USP19, the IC50 is 5 to 50 µM.

In the case of `CN(C)C(=O)c1cn(CC2(O)CCN(C(=O)c3csc(C(F)(F)F)n3)CC23CCCC3)c(=O)cc1-c1ccccc1` (stereo not drawn) [Example 246, 1-((10-Hydroxy-7-(2-(trifluoromethyl)thiazole-4-carbonyl)-7-azaspiro[4.5]decan-10-yl)methyl)-N,N-dimethyl-6-oxo-4-phenyl-1,6-dihydropyridine-3-carboxamide], the IC50 on USP19 lay in the range of 5 to 50 µM.

As for `C[C@H](CC1CCCCC1)C(=O)N1CCC(O)(Cn2cnc(-c3cccc(CN)c3)cc2=O)C(C)(C)C1` (stereo partly drawn) [Example 159, 6-(3-(Aminomethyl)phenyl)-3-((1-((R)-3-cyclohexyl-2-methylpropanoyl)-4-hydroxy-3,3-dimethylpiperidin-4-yl)methyl)pyrimidin-4(3H)-one], the IC50 on USP19 is 0.5 to 5 µM.

In the case of `C[C@H](CC(=O)N1CCC(O)(Cn2cnc(-c3cccc4cnn(C)c34)cc2=O)CC1)c1ccccc1` [Example 16, (R)-3-((4-Hydroxy-1-(3-phenylbutanoyl)piperidin-4-yl)methyl)-6-(1-methyl-1H-indazol-7-yl)pyrimidin-4(3H)-one], the half-maximal inhibitory concentration (IC50) on USP19 is 5 to 50 µM.

As for `C[C@H](CC(=O)N1CCC(O)(Cn2cc(C(=O)N(C)C)c(-c3ccccc3)cc2=O)CC1)c1ccccc1` [Example 95, (R)-1-((4-Hydroxy-1-(3-phenylbutanoyl)piperidin-4-yl)methyl)-N,N-dimethyl-6-oxo-4-phenyl-1,6-dihydropyridine-3-carboxamide], at USP19, the IC50 lay within 5 to 50 µM.

For the compound `C[C@H](CC(=O)N1CCC(O)(Cn2cc(-c3cnn(C)c3)c(-c3ccccc3)cc2=O)CC1)c1ccccc1` [Example 109, (R)-1-((4-Hydroxy-1-(3-phenylbutanoyl)piperidin-4-yl)methyl)-5-(1-methyl-1H-pyrazol-4-yl)-4-phenylpyridin-2(1H)-one], the IC50 on USP19 was 50 to 250 µM.

With `COc1ccccc1-c1cc(=O)n(CC2(O)CCN(C(=O)C[C@@H](C)c3ccccc3)CC2)cc1C(=O)N(C)C(C)C` [Example 89, (R)-1-((4-Hydroxy-1-(3-phenylbutanoyl)piperidin-4-yl)methyl)-N-isopropyl-4-(2-methoxyphenyl)-N-methyl-6-oxo-1,6-dihydropyridine-3-carboxamide], the IC50 on USP19 was 0.5 to 5 µM.

For `C[C@H](CC(=O)N1CCC(O)(Cn2cc(-c3cccc(C(N)=O)c3)c(-c3ccccc3)cc2=O)CC1)c1ccccc1` [Example 7, (R)-3-(1-((4-Hydroxy-1-(3-phenylbutanoyl)piperidin-4-yl)methyl)6-oxo-4-phenyl-1,6-dihydropyridin-3-yl)benzamide], on USP19, the 50% inhibitory concentration (IC50) lay within 0.5 to 5 µM.

On to `C[C@H](CC1CCCCC1)C(=O)N1CCC(O)(Cn2cc(C(=O)N(C)C)c(-c3ccc(CO)cc3)cc2=O)C2(CCCC2)C1` (stereo partly drawn) [Example 162, 1-((7-((R)-3-Cyclohexyl-2-methylpropanoyl)-10-hydroxy-7-azaspiro[4.5]decan-10-yl)methyl)-4-(4-(hydroxymethyl)phenyl)-N,N-dimethyl-6-oxo-1,6-dihydropyridine-3-carboxamide], for which the IC50 at USP19 is less than 0.5 µM.

Take `C[C@H](CC(=O)N1CCC(O)(Cn2cc(-c3cccc(CN)c3)c(-c3ccccc3)cc2=O)CC1)c1ccccc1` [Example 100, (R)-5-(3-(Aminomethyl)phenyl)-1-((4-hydroxy-1-(3-phenylbutanoyl)piperidin-4-yl)methyl)-4-phenylpyridin-2(1H)-one]: the half-maximal inhibitory concentration (IC50) on USP19 fell in the range of 5 to 50 µM.

As to `C[C@H](CC1CCCCC1)C(=O)N1CC[C@](O)(Cn2cc(C(=O)N(C)C)c(-c3ccccc3)cc2=O)C(C)(C)C1` [Example 122, 1-(((R)-1-((R)-3-Cyclohexyl-2-methylpropanoyl)-4-hydroxy-3,3-dimethylpiperidin-4-yl)methyl)-N,N-dimethyl-6-oxo-4-phenyl-1,6-dihydropyridine-3-carboxamide], the 50% inhibitory concentration (IC50) at USP19 is 50 to 250 µM.

For `C[C@H](CC(=O)N1CCC(O)(Cn2cc(C(=O)N(C)Cc3ccccc3)c(-c3ccccc3)cc2=O)CC1)c1ccccc1` [Example 105, (R)—N-Benzyl-1-((4-hydroxy-1-(3-phenylbutanoyl)piperidin-4-yl)methyl)-N-methyl-6-oxo-4-phenyl-1,6-dihydropyridine-3-carboxamide], the IC50 on USP19 fell in the range of 5 to 50 µM.

As to `CC(CC(=O)N1CCC(O)(Cn2cc(C(=O)N(C)C)c(-c3ccccc3)cc2=O)C2(CCCC2)C1)C(F)(F)F` (stereo not drawn) [Example 171, 1-((10-Hydroxy-7-(4,4,4-trifluoro-3-methylbutanoyl)-7-azaspiro[4.5]decan-10-yl)methyl)-N,N-dimethyl-6-oxo-4-phenyl-1,6-dihydropyridine-3-carboxamide], the IC50 on USP19 fell in the range of 50 to 250 µM.
